Tests used:
[1] = test system: SENS-AS strain; experiment: Specificity of SENS-AS strain to metals other than arsenic; format: cell-based, Rv. sulfidophilum
From the text: Therefore, specificity to metal of the SENS-AS strain was investigated by adding a sample containing metal other than arsenic to the SENS-AS strain and checking the responding property to those samples. With regard to the metal other than arsenic, there were used antimony and bismuth which have been reported to inherently show a responding property to ArsR and also cobalt, cadmium, nickel, zinc and lead where responding property in a protein having the similar sequence to metal-bonding site of ArsR has been confirmed already [L. S. Busenlehner, et al., (2003) FEMS Microbiol. Rev., 27:131-43]. The responding property was also tested for a solution in which iron, manganese, copper and aluminum which are abundantly contained in tap water were mixed. The experiment was carried out by the same method as in the detection of arsenic, rate of red pigments (DMSO and SO) to the total sum of DMSO, DMSE, SO and SE was calculated from the area value of each peak shown in the chart prepared as a result of an HPLC analysis, mean value and standard deviation for each sample were calculated and graphs were prepared.
From the above results, it was now made clear that the arsenic-detecting biosensor SENS-AS strain responded arsenic and bismuth. However, in order to respond to bismuth, a bismuth concentration of as high as 100-fold as compared with arsenic was necessary.

[2] = test system: ddhA gene (promoter Pddh of ddh operon); experiment: RT-PCR analysis of ddhA gene transcription induction by sulfur compounds; format: cell-based, Rv. sulfidophilum W-1S; conditions: 3 days in 4CMOM medium, bright aerobic and dark aerobic condition
Description: Extraction of RNA was carried out using RNeasy Mini Kit (QIAGEN) according to the protocol attached thereto. For dissolving the cells at that time, lysozyme was added thereto in the indicated concentration. For the removal of the contaminated DNA, DNase I (TaKaRa) was used by the method indicated in the protocol together with the buffer attached thereto. Incubation was carried out at 37° C. for 30 minutes and, after that, RNA was purified via a PCI treatment and a precipitating operation with ethanol. A reverse transcription reaction was carried out where 1 μg of purified RNA as a template using an RNA PCR Kit (AMV) Ver. 2.1 (TaKaRa). In the reverse transcription reaction, things contained in the kit, i.e. reverse transcriptase, RNase inhibitor, random nonamer, buffer, dNTP and MgCl2 were used and the reaction was conducted at 45° C. for 28 minutes. A PCR was carried out by the same manner as in the above mentioned “4: PCR” using 4 μl of the solution after the reverse transcription reaction as a template.
Firstly, investigation of a DMS-inductive property of Pddh was planned. Primers ddhA1 and ddhA2 were designed based on ddhA gene sequence on the database. […]

[3] = test system: DMS biosensor strain; experiment: Response of DMS biosensor strain (pSDMS in pigment variant): color tone and rate of red pigment by HPLC; format: cell-based, Rv. sulfidophilum; conditions: third day of incubation, bright aerobic condition, n=3
Description: When incubation of a bacterium strain was conducted in 10 ml of medium in a test tube under various conditions (under slightly aerobic and bright condition; under slightly aerobic and dark condition; and under anaerobic and bright condition), the incubation was done for three days. The culture liquid (1 ml) was placed in an Eppendorf tube, the pellets after centrifugal separation was frozen at −80° C. for 2 hours and then freeze-dried for one night. An appropriate amount (100 μl to 500 μl) of a mixed liquid of acetone and methanol was added to the resulting freeze-dried product, subjected to vortex for 2 minutes and then centrifuged for 5 minutes at 14,000 rpm using a portable centrifuge and the resulting supernatant liquid was used as a sample for an HPLC. […]
Since DMS is hardly soluble in water, ethanol was used as a solvent for the manufacture of concentrated stocks and preparation of diluted series. […] Analysis of pigment composition was conducted via an HPLC analysis the same as before and, from the value of area of each peak shown in the resulting HPLC chart, rate of red pigments (DMSO and SO) to the sum of total carotenoid pigment (DMSO, DMSE, SO, SE and neurosporene) was calculated. For each sample, mean value and standard deviation was calculated from the above value and a graph was prepared. […]

| Structure (SMILES) | concentration needed for response as compared with arsenic [1] [fold] | ddhA gene transcription induction [2] | DMS concentration giving significant accumulation of SO and discriminable color tone [3] [mM] |
| --- | --- | --- | --- |
| [Bi] [bismuth] | 100 |  |  |
| CSC [DMS, dimethyl sulfide] |  | apparent ddhA gene transcription induction was observed | 3 |
| C[S+](C)[O-] [dimethyl sulfoxide] |  | no significant induction of ddhA gene transcription |  |

Reference: patent publication US20080044829A1, “Biosensor Utilizing Pigment-Synthesizing Gene Of A Purple Non-Sulfur Bacterium And A Method For Preparing Such A Biosensor” (priority 2004, published 2008)
